Test results from PubChem BioAssay (NCI).
“And” between values parts separate entries of the source, which are not always exact repeats. Equal entries are not always repeated.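 Compound exposure: 48 hours, 5 concentrations, 96-well plates. GI50 is the concentration that inhibits growth by half. TGI: concentration producing complete growth inhibition.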

Columns and labels:
Test in all cases: NCI tumour cell line growth inhibition, 48 h
UACC-62 melanoma = tested on: UACC-62 melanoma
UO-31 renal = tested on: UO-31 renal
NCI/ADR-RES ovarian = tested on: NCI/ADR-RES ovarian
U251 CNS = tested on: U251 CNS
MDA-MB-231 breast = tested on: MDA-MB-231 breast
COLO 205 colon = tested on: COLO 205 colon
SF-268 CNS = tested on: SF-268 CNS
SF-295 CNS = tested on: SF-295 CNS
SR leukemia = tested on: SR leukemia
RPMI-8226 leukemia = tested on: RPMI-8226 leukemia
786-0 renal = tested on: 786-0 renal
BT-549 breast = tested on: BT-549 breast

SMILES	TGI (UACC-62 melanoma)	TGI (UO-31 renal)	TGI (NCI/ADR-RES ovarian)	TGI (U251 CNS)	TGI (MDA-MB-231 breast)	TGI (COLO 205 colon)	TGI (SF-268 CNS)	TGI (SF-295 CNS)	TGI (SR leukemia)	TGI (RPMI-8226 leukemia)	TGI (786-0 renal)	TGI (BT-549 breast)	GI50 (UO-31 renal)	GI50 (NCI/ADR-RES ovarian)	GI50 (U251 CNS)	GI50 (MDA-MB-231 breast)	GI50 (SF-268 CNS)
CN(C)CCCC12CCCCC1=Nc1ccccc12 (configuration not stated)	> 100 µM	> 100 µM	> 100 µM	> 100 µM	> 100 µM	> 100 µM	> 100 µM	> 100 µM	69.2 µM	> 100 µM	> 100 µM	> 100 µM	–	–	–	–	–
COC(CNC(=O)C(C)NC(=O)/C=C/c1ccccc1)OC (configuration not stated)	> 100 µM	> 100 µM	> 100 µM	> 100 µM	> 100 µM	> 100 µM	> 100 µM	> 100 µM	> 100 µM	> 100 µM	> 100 µM	> 100 µM	–	–	–	–	–
O=c1cc(-c2cccc3ccccc23)[nH]c2ncccc12	> 100 µM	> 100 µM	> 100 µM	> 100 µM	> 100 µM	0.0587 µM and 0.136 µM	> 100 µM	> 100 µM	> 100 µM	> 100 µM	> 100 µM	> 100 µM	0.0741 µM	0.0173 µM	0.0103 µM	0.0479 µM	10.1 µM
Fc1cc(-c2cc(-c3ccccc3)no2)c(Cl)cc1Cl	> 100 µM	> 59.3 µM	> 100 µM	> 21.7 µM	32.8 µM	> 16.2 µM	> 54.2 µM	> 49.4 µM	> 41.8 µM	34 µM	> 33.6 µM	39.8 µM	–	–	–	–	–
O=C1/C(=C/c2ccccc2S)N=C(c2ccccc2)N1c1nc2c(Cl)cc(Cl)cc2s1	57.5 µM	48.1 µM	84.9 µM	54.2 µM	80.9 µM	54.8 µM	> 100 µM	72.4 µM	34 µM	54.1 µM	74.1 µM	> 100 µM	–	–	–	–	–
COc1cc(C2c3cc4c(cc3OC3(OC)COC(=O)C23)OCO4)cc(OC)c1OC(C)=O (configuration not stated)	> 100 µM	> 100 µM	10.4 µM	> 100 µM	> 100 µM	> 49.3 µM	> 100 µM	5.38 µM	> 31.6 µM	> 100 µM	> 100 µM	> 100 µM	–	–	–	–	–
O=C(/C=C/c1cc2ccccc2o1)N1CCN(c2ccccn2)CC1	> 100 µM	> 100 µM	> 100 µM	> 100 µM	> 100 µM	> 100 µM	> 100 µM	> 100 µM	> 100 µM	> 100 µM	> 100 µM	> 100 µM	–	–	–	–	–
CCOC(=O)C12OC(CCC1=O)C(C(=O)OC)=C2C(=O)OC (configuration not stated)	> 10 µM	> 10 µM	> 10 µM	> 10 µM	> 10 µM	> 10 µM	> 10 µM	> 10 µM	> 10 µM	> 10 µM	> 10 µM	> 10 µM	–	–	–	–	–
CC(=O)c1c(C)n([O-])c2cc(Cl)c(Cl)cc2[n+]1=O	50 µM	32.9 µM	75.1 µM	> 100 µM	62.7 µM	30.1 µM	> 100 µM	> 100 µM	62.2 µM	25.4 µM	> 100 µM	> 100 µM	–	–	–	–	–
CC#CCOC(=O)c1ccccc1OC(C)=O	> 100 µM	> 100 µM	> 100 µM	> 100 µM	> 100 µM	> 100 µM	> 100 µM	> 100 µM	> 100 µM	> 100 µM	> 100 µM	> 100 µM	–	–	–	–	–
COC(=O)C(Cc1c[nH]c2ccccc12)NP(=O)(O)OCC1OC(n2cc(I)c(=O)[nH]c2=O)CC1O (configuration not stated)	> 100 µM	> 100 µM	> 100 µM	> 100 µM	> 100 µM	> 100 µM	> 100 µM	> 100 µM	> 100 µM	> 100 µM	> 100 µM	> 100 µM	–	–	–	–	–
